Structures are written as SMILES.

The target in this experiment is T1, EcCurA (E. coli curcumin reductase, double bond reductase) (Escherichia coli, UniProt P76113).
T1 construct: gene curA
T1 sequence (P76113 1-345): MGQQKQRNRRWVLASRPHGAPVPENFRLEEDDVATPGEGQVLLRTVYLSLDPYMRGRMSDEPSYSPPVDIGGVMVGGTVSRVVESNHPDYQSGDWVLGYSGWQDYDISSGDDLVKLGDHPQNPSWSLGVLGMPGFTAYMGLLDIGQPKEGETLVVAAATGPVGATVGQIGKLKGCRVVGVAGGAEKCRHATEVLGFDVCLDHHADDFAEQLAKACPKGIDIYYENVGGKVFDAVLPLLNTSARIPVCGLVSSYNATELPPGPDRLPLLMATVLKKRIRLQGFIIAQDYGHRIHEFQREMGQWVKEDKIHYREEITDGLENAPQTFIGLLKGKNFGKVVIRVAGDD
Briefly: fluorescence titration. The class given is binding.

The term Kd denotes the equilibrium constant for the complex coming apart. A low value points to a tighter complex. `COc1cc(/C=C/C(=O)CC(=O)/C=C/c2ccc(O)c(OC)c2)ccc1O` [curcumin] displayed a Kd of 8.39 µM.
